In the NIST ThermoML archive (doi:10.1021/acs.jced.9b00147):

Assay: xn = mol fraction of the nth substance listed
Settings: 101.3 kPa, Liquid; for speed of sound: Single path-length method; for mass density: Vibrating tube method

CC(=O)[O-].[NH3+]CCO [2-hydroxyethylammonium acetate] + CC(C)O
Settings	mass density, 293.15 K [kg/m3]	mass density, 303.15 K [kg/m3]	mass density, 313.15 K [kg/m3]	mass density, 323.15 K [kg/m3]	speed of sound, 293.15 K [m/s]	speed of sound, 303.15 K [m/s]	speed of sound, 313.15 K [m/s]	speed of sound, 323.15 K [m/s]
x1 = 0.102	840.8	832.7	824.4	815.7	1218.6	1184.9	1151	1116.9
x1 = 0.2	888.4	880.8	872.9	864.8	1275.2	1242.9	1210.5	1177.8
x1 = 0.299	930.8	923.5	916	908.3	1334	1302.6	1271.5	1240.1
x1 = 0.397	970.4	963.3	956.2	948.5	1397.5	1366.2	1335.9	1305.6
x1 = 0.493	1007	999.7	992.8	985.5	1465.1	1435.1	1405.8	1376.6
x1 = 0.6	1042	1037	1030	1023	1549.8	1516.7	1487.9	1460.2
x1 = 0.692	1072	1066	1060	1052	1620.1	1588.6	1559.5	1532.3
x1 = 0.798	1103	1097	1091	1085	1701.8	1666.8	1638.2	1612
x1 = 0.894	1129	1124	1118	1112	1779	1742.8	1713.8	1687.8
x1 = 1	1150	1144	1139	1132	1812.9	1781.2	1754.7	1730.9

CC(=O)[O-].[NH3+]CCO [2-hydroxyethylammonium acetate] + CCCO
Settings	mass density, 293.15 K [kg/m3]	mass density, 303.15 K [kg/m3]	mass density, 313.15 K [kg/m3]	mass density, 323.15 K [kg/m3]	speed of sound, 293.15 K [m/s]	speed of sound, 303.15 K [m/s]	speed of sound, 313.15 K [m/s]	speed of sound, 323.15 K [m/s]
x1 = 0.101	855.6	847.8	839.9	831.9	1274.5	1241.6	1208.9	1176.3
x1 = 0.199	900	892.5	884.8	877.1	1323.5	1291.7	1260.2	1228.7
x1 = 0.298	941.7	934.5	927.2	919.6	1377.3	1346.4	1316	1285.6
x1 = 0.401	981.1	974.1	967.3	960.3	1437.7	1407.8	1378.3	1348.9
x1 = 0.502	1016	1010	1003	996.3	1502	1472.9	1444.4	1416.3
x1 = 0.592	1046	1040	1033	1027	1561.1	1532.2	1504.3	1477
x1 = 0.681	1073	1067	1061	1055	1624.3	1595.1	1567.7	1541.3
x1 = 0.795	1104	1098	1092	1086	1711.5	1678.6	1650.8	1624
x1 = 0.89	1130	1124	1118	1112	1777.8	1743.4	1715.9	1690.2
x1 = 1	1150	1144	1139	1133	1812.9	1781.2	1754.7	1730.9
